These results are taken from PubChem BioAssay (NCI).

Test systems include A498 renal; CCRF-CEM leukemia; EKVX NSCLC; HCT-116 colon; OVCAR-3 ovarian; OVCAR-4 ovarian; OVCAR-5 ovarian; SK-MEL-5 melanoma; UACC-257 melanoma; SR leukemia.
Common to all, as to assay: NCI anticancer screen, dose series, 48 h

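These data come from cells grown in 96-well plates and exposed to compound for 48 hours at five concentrations. The concentration for full growth arrest is given as TGI.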

For the compound `C[C@H](CCC1=NCCN1)[C@H]1CC[C@H]2[C@@H]3[C@H](O)C[C@@H]4C[C@H](O)CC[C@]4(C)[C@H]3CC[C@]12C`, the TGI in the assay with A498 renal is 26.1 µM; in the assay with CCRF-CEM leukemia, 32.9 µM; in the assay with EKVX NSCLC it was 32.3 µM; in the assay on HCT-116 colon, 26.4 µM; in the assay with OVCAR-3 ovarian, 26.6 µM; with OVCAR-4 ovarian, 28.1 µM. In addition, the TGI in the assay on OVCAR-5 ovarian was found to be 27.5 µM; in the assay on SK-MEL-5 melanoma, 27.3 µM; in the assay on UACC-257 melanoma, 28.3 µM.

In the case of `CC(=O)Oc1ccc(N2C(=O)C3c4[nH]c5ccccc5c4C4CCC(C(C)(C)C)CC4C3C2=O)cc1` (centres undefined), the TGI in the assay on A498 renal came out at 14.7 µM; in the assay on CCRF-CEM leukemia, 13.2 µM; with EKVX NSCLC, 9.41 µM; with HCT-116 colon it was 4.93 µM; with OVCAR-3 ovarian it was 7.07 µM; with OVCAR-5 ovarian, 14.6 µM. In addition, the TGI with SK-MEL-5 melanoma worked out at 8.19 µM; in the assay with UACC-257 melanoma, 24 µM.

In the case of `CC(=O)N1c2ccccc2C(C)(C)OC1C(Cl)(Cl)Cl` (centres undefined), the TGI in the assay on A498 renal, in the assay on CCRF-CEM leukemia, in the assay with EKVX NSCLC, with HCT-116 colon, in the assay with OVCAR-3 ovarian and in the assay with OVCAR-4 ovarian was greater than 100 µM in each case. In addition, the TGI in the assay on OVCAR-5 ovarian is greater than 100 µM; in the assay on SK-MEL-5 melanoma it was 53.4 µM; in the assay with UACC-257 melanoma, 84.3 µM.

Take `NS(=O)(=O)c1ccc(NC(=O)c2cc([N+](=O)[O-])cc([N+](=O)[O-])c2)cc1`: the TGI is greater than 100 µM in the assay with A498 renal; greater than 100 µM in the assay with CCRF-CEM leukemia; greater than 100 µM with HCT-116 colon; 84.9 µM in the assay with OVCAR-3 ovarian; 79.2 µM with OVCAR-4 ovarian; greater than 100 µM with SK-MEL-5 melanoma. The figures for the TGI in the assay on SR leukemia and in the assay on UACC-257 melanoma were greater than 100 µM and 32 µM, respectively.

`Cc1nc2c(o1)C(=O)c1ccccc1C2=NC1CCCCC1N` (centres undefined): the TGI in the assay on A498 renal was 3.12 µM; with CCRF-CEM leukemia it was 1.28 µM; in the assay on EKVX NSCLC it was 2.92 µM; with HCT-116 colon it was 0.729 µM; with OVCAR-3 ovarian, 1.66 µM; with OVCAR-4 ovarian it was 1.01 µM. Moreover, the TGI in the assay on OVCAR-5 ovarian amounted to 3.24 µM; with SK-MEL-5 melanoma, 0.252 µM; in the assay on UACC-257 melanoma, 0.321 µM.

`Cc1c(C(=O)CSc2nc3ccc([N+](=O)[O-])cc3[nH]2)c(=O)n(-c2ccccc2)n1C`: the TGI in the assay on A498 renal, in the assay with CCRF-CEM leukemia, in the assay with HCT-116 colon, in the assay with OVCAR-3 ovarian, in the assay on OVCAR-4 ovarian and in the assay with OVCAR-5 ovarian was greater than 100 µM in each case. For the same compound, the TGI in the assay with SK-MEL-5 melanoma, in the assay on SR leukemia and with UACC-257 melanoma was greater than 100 µM each time.

Take `CCOC(=O)c1cccc(NC(=O)CBr)c1`: the TGI was determined as 14.7 µM in the assay on A498 renal; 3.47 µM in the assay on EKVX NSCLC; 1.88 µM in the assay on HCT-116 colon; 3.34 µM in the assay on OVCAR-3 ovarian; 3.73 µM in the assay on OVCAR-4 ovarian; 3.28 µM in the assay with OVCAR-5 ovarian. Moreover, the TGI in the assay on SK-MEL-5 melanoma came to 2.76 µM; with SR leukemia it was 0.521 µM; with UACC-257 melanoma, 3.86 µM.

With `CNNC1=NS(=O)(=O)c2cc(C)c(Cl)cc2S1`, the TGI in the assay on A498 renal, with CCRF-CEM leukemia, in the assay with EKVX NSCLC, in the assay with HCT-116 colon, with OVCAR-3 ovarian and in the assay on OVCAR-4 ovarian was greater than 10 µM in each case. Also, the TGI in the assay with OVCAR-5 ovarian, in the assay with SK-MEL-5 melanoma and in the assay with UACC-257 melanoma was greater than 10 µM each time.

Regarding `COc1ccccc1/C=C1\Sc2scc(-c3cccc([N+](=O)[O-])c3)[n+]2C1=O`, the TGI in the assay on A498 renal is 48.9 µM; in the assay on EKVX NSCLC, 28 µM; in the assay on HCT-116 colon, 16.7 µM; in the assay with OVCAR-3 ovarian, 26.7 µM; in the assay with OVCAR-4 ovarian, 43.2 µM; in the assay with OVCAR-5 ovarian, 39 µM. Moreover, the figures for the TGI in the assay with SK-MEL-5 melanoma, in the assay on SR leukemia and with UACC-257 melanoma were 8.86 µM, greater than 100 µM and 19.8 µM, respectively.

With `CC[C@@H]1CN2CCC1C[C@@H]2C(O)c1ccnc2ccc(OCCN3CCN(CCOc4ccc5nccc(C(O)[C@@H]6C[C@@H]7CCN6C[C@@H]7CC)c5c4)CC3)cc12` (some centres undefined), the TGI worked out at 37 µM in the assay with A498 renal; 15.7 µM with CCRF-CEM leukemia; 31.2 µM in the assay on EKVX NSCLC; 28.3 µM in the assay with HCT-116 colon; 36 µM in the assay on OVCAR-3 ovarian; 40.8 µM in the assay on OVCAR-4 ovarian. Further, the values for the TGI with OVCAR-5 ovarian, in the assay on SK-MEL-5 melanoma and in the assay with UACC-257 melanoma were 32.9 µM, 32 µM and 32.1 µM, respectively.

Take `COc1cc(C2C(Cl)C(=O)N2n2cnc3ccccc3c2=O)cc(OC)c1OC` (centres undefined): the TGI in the assay with CCRF-CEM leukemia, in the assay with EKVX NSCLC, with HCT-116 colon, in the assay with OVCAR-3 ovarian, with OVCAR-4 ovarian and in the assay on OVCAR-5 ovarian was greater than 100 µM in each case. The TGI in the assay on SK-MEL-5 melanoma, with SR leukemia and in the assay on UACC-257 melanoma was greater than 100 µM in each case.

For the compound `O=C(O)C(CS)NCc1c2ccccc2[n+]([O-])c2ccccc12` (centres undefined), the TGI is greater than 100 µM in the assay with A498 renal; 80.8 µM in the assay with CCRF-CEM leukemia; greater than 100 µM in the assay on EKVX NSCLC; 62.4 µM with HCT-116 colon; greater than 100 µM in the assay with OVCAR-3 ovarian; 86.6 µM in the assay on OVCAR-4 ovarian. For the same compound, the TGI with OVCAR-5 ovarian, in the assay with SK-MEL-5 melanoma and in the assay with UACC-257 melanoma was greater than 100 µM each time.

Consider `CCCCCCCCCCCCCCCC(=O)ON1C(=S)NC(C)(c2ccccc2)C1=S` (centres undefined), for which the TGI in the assay on A498 renal, with CCRF-CEM leukemia, in the assay on EKVX NSCLC, with HCT-116 colon, in the assay on OVCAR-3 ovarian and with OVCAR-4 ovarian was greater than 100 µM in each case. Moreover, the TGI in the assay with OVCAR-5 ovarian, with SK-MEL-5 melanoma and in the assay with UACC-257 melanoma was greater than 100 µM throughout.

In the case of `O=C(O)CCC(NC(=O)c1ccc(Nc2nc3ccccc3nc2C(=O)O)cc1)C(=O)O` (centres undefined), the TGI in the assay on CCRF-CEM leukemia, in the assay with EKVX NSCLC, in the assay on HCT-116 colon, in the assay with OVCAR-3 ovarian, in the assay on OVCAR-4 ovarian and in the assay on OVCAR-5 ovarian was greater than 100 µM throughout. Also, the TGI in the assay on SK-MEL-5 melanoma, in the assay on SR leukemia and in the assay with UACC-257 melanoma was greater than 100 µM each time.
